# Reference: patent publication US20210238170A1, “5,5-Difluoro- and 5-Fluoro-5-Methyl-C-Glycoside Derivatives Useful As Dual SGLT1 / SGLT2 Modulators” (Janssen Pharmaceutica NV, priority 2018, published 2021)
# Read-outs that look alike come from different tables or passages of the source.
# Tests used:
# human SGLT1 = target: T1, human SGLT1 (Homo sapiens, UniProt P13866); assay: SGLT1 in vitro assay: Na-dependent 14C-AMG uptake in CHO-K1 cells stably expressing human SGLT1; assay type: cell-based; conditions: for inhibition at 0.3 µM: read-out: SGLT1 % Inh @ 0.3 μM
# T1 construct: expressed in transfected cells
# T1 sequence (P13866 1-664): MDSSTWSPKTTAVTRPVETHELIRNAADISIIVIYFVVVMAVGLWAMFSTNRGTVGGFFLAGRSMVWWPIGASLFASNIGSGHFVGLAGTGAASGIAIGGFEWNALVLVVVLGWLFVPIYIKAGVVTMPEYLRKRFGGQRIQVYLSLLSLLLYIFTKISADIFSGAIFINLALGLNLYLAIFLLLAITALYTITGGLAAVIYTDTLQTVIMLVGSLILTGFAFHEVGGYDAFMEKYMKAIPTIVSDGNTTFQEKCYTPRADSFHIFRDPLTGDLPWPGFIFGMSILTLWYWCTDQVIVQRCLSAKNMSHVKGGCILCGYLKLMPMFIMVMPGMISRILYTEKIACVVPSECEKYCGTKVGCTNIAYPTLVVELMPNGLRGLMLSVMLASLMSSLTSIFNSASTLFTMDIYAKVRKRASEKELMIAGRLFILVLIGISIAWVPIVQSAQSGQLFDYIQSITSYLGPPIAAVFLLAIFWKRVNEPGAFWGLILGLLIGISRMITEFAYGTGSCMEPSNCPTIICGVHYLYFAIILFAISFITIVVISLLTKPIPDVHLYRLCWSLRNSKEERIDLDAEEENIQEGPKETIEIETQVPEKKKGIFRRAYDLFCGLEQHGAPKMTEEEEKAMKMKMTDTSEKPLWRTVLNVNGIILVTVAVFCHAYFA
# Protocol: (§1) Biological Example 1: SGLT1 and SGLT2 In Vitro Assays
# (§2) The ability of the compounds of formula (I) of the present invention to treat an SGLT-mediated condition was determined using the following procedures:
# (§3) SGLT1 and SGLT2 were cloned in form of cDNA from human small intestine (Genbank M24847), and from human kidney (Genbank M95549), respectively. Subsequently, each full cDNA was subcloned into pcDNA with each construct's integrity verified through follow-on sequencing. To generate CHO-K1 cells that stably express human SGLT1 or human SGLT2, CHO-K1 cells were transfected using DMRIE-C reagent (Life Technologies, Gaithersburg, Md.). Transfected cells were then selected in the presence of 500 μg/ml of the Geneticin (G418 Cellgro Catalog No. 30234-CI)
# (§4) Individual clones were then characterized using the following cell-based assay for sodium-dependent glucose transport:
# (§5) Inhibition of SGLT1 and SGLT2 activity was assessed in CHO K1 cells stably expressing either human SGLT1 or SGLT2, using the SGLT specific glucose analog methyl-glucopyranoside (Sigma Catalog No. M-9376). Cells were plated (45,000 cells/well) in white wall 96-well plates (COSTAR, Cat #3903) for 24 hours in growth medium, then a final concentration of 10 mM Na-Butyrate (ALDRICH Cat #30341-0) was added. The cells were incubated for 24 hours. On the day of the assay, cells were rinsed and treated with test compounds (at concentrations of 0.001 μM to 10 μM) in assay buffer (50 mM HEPES, 20 mM Tris base, 5 mM KCl, 1 mM MgCl2, 1 mM CaCl2 and 137 mM NaCl, pH 7.4) for 10 minutes. Cells were then incubated with ^14C-a-methyl-d-glucopyranoside (AMG, Amersham Catalog No. CFB 76), using 0.07 μCi per well in 500 µM AMG final concentration. The cells were incubated for 2 hours at 37° C. with 5% CO2 and washed two times with ice-cold Phosphate Buffer Solution (CELLGRO Catalog No. 21030-CV). The cells were then solubilized by adding 60 μl of MICROSCINT™ 20 and the Na-dependent ^14C-AMG uptake was quantified by measuring radioactivity. Plates were counted in a TopCount (Packard, Meriden, Conn.)
# (§6) Representative compounds of the present invention were tested according to the procedures as described in Biological Example 1 and 2 above, with results as listed in Table 5, below. Results are reported as the %-inhibition or IC50 value. Variability for the functional assay was typically within 20%.
# human SGLT2 = target: T2, human SGLT2 (Homo sapiens, UniProt P31639); assay: SGLT2 in vitro assay: Na-dependent 14C-AMG uptake in CHO-K1 cells stably expressing human SGLT2; assay type: cell-based; conditions: for inhibition at 0.3 µM: read-out: SGLT2 % Inh @ 0.3 μM
# T2 construct: expressed in transfected cells
# T2 sequence (P31639 1-672): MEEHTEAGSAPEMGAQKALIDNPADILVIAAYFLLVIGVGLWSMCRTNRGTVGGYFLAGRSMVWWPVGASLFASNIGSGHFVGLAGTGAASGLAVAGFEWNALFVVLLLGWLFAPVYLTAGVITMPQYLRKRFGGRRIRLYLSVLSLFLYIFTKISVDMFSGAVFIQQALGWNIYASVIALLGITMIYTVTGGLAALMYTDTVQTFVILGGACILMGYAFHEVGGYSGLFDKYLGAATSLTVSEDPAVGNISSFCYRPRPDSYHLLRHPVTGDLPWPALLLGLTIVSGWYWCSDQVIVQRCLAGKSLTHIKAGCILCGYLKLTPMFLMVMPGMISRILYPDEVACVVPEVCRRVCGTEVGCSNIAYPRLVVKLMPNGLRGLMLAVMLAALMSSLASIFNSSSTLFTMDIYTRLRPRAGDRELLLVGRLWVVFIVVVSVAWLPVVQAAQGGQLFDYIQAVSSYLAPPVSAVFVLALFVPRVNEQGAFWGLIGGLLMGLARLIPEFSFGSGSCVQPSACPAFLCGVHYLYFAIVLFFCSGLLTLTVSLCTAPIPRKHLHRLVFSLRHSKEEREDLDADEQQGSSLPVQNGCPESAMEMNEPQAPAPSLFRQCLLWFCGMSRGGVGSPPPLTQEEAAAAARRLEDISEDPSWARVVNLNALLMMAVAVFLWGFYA
# Protocol: as §1, §2, §3, §4, §5, §6
# [1] = @ 0.3 μM, CHO-K1 cells stably expressing human SGLT1, 14C-AMG uptake
# [2] = @ 0.3 μM, CHO-K1 cells stably expressing human SGLT2, 14C-AMG uptake
# [3] = 0.3 μM, CHO-K1 cells expressing human SGLT1
# [4] = CHO-K1 cells expressing human SGLT1, 14C-AMG uptake
# [5] = 0.3 μM, CHO-K1 cells expressing human SGLT2
# [6] = CHO-K1 cells expressing human SGLT2, 14C-AMG uptake
# [7] = CHO-K1 cells stably expressing human SGLT1, 14C-AMG uptake, compounds of formula (I) where R0 is fluoro
# [8] = CHO-K1 cells stably expressing human SGLT2, 14C-AMG uptake, compounds of formula (I) where R0 is fluoro
smiles,measurement,setting,value
CCc1ccc(Cc2cc(C3OC(CO)C(F)(F)C(O)C3O)cc3c2OCC3CO)cc1 (mixture of isomers) [Compound 61],SGLT1 % Inh @ 0.3 μM,human SGLT1; [1],32.2%
same,SGLT2 % Inh @ 0.3 μM,human SGLT2; [2],58.0%
"Cc1cc(O)c([C@@H]2O[C@H](CO)[C@@](C)(F)[C@H](O)[C@H]2O)cc1Cc1ccc(OCF)cc1 (stereo in doubt) [Compound 23, (2S,3R,4R,5S,6R)-5-fluoro-2-(5-(4-(fluoromethoxy)benzyl)-2-hydroxy-4-methylphenyl)-6-(hydroxymethyl)-5-methyl-tetrahydro-2H-pyran-3,4-diol]",inhibition at 0.3 µM,human SGLT1; [3],54%
same,IC50,human SGLT1; [4],0.319 µM
same,inhibition at 0.3 µM,human SGLT2; [5],88%
same,IC50,human SGLT2; [6],0.0028 µM
Cc1cc(O)c([C@@H]2O[C@H](CO)[C@@](C)(F)[C@H](O)[C@H]2O)cc1Cc1cc2ccccc2s1 [Compound 1],inhibition at 0.3 µM,human SGLT1; [3],57.6%
same,IC50,human SGLT1; [4],0.198 µM
same,IC50,human SGLT2; [6],0.0196 µM
"COc1cc(O)c([C@@H]2O[C@H](CO)[C@@](C)(F)[C@H](O)[C@H]2O)cc1Cc1ccc2c(c1)CCCO2 [Compound 2, (2S,3R,4R,5S,6R)-2-[5-(chroman-6-ylmethyl)-2-hydroxy-4-methoxy-phenyl]-5-fluoro-6-(hydroxymethyl)-5-methyl-tetrahydropyran-3,4-diol]",inhibition at 0.3 µM,human SGLT1; [3],31.1%
same,inhibition at 0.3 µM,human SGLT2; [5],67.4%
COc1cc(OC)c(C2OC(CO)C(C)(F)C(O)C2O)cc1Cc1ccc2c(c1)CCCO2 (centres unmarked) [Compound 4],SGLT1 % Inh @ 0.3 μM,human SGLT1; [3],0.9%
same,SGLT2 % Inh @ 0.3 μM,human SGLT2; [5],73.4%
"COc1cc(OC)c([C@@H]2O[C@H](CO)[C@@](C)(F)[C@H](O)[C@H]2O)cc1Cc1ccc2c(c1)OCCO2 [Compound 9, (2S,3R,4R,5S,6R)-2-[5-(2,3-dihydro-1,4-benzodioxin-6-ylmethyl)-2,4-dimethoxy-phenyl]-5-fluoro-6-(hydroxymethyl)-5-methyl-tetrahydropyran-3,4-diol]",inhibition at 0.3 µM,human SGLT1; [3],25.3%
same,inhibition at 0.3 µM,human SGLT2; [5],58.7%
"C[C@]1(F)[C@H](O)[C@@H](O)[C@H](c2cc(Cc3cc4ccccc4s3)c(Cl)cc2O)O[C@@H]1CO [Compound 10, (2S,3R,4R,5S,6R)-2-[5-(benzothiophen-2-ylmethyl)-4-chloro-2-hydroxy-phenyl]-5-fluoro-6-(hydroxymethyl)-5-methyl-tetrahydropyran-3,4-diol]",inhibition at 0.3 µM,human SGLT1; [3],41.7%
same,IC50,human SGLT1; [4],0.287 µM
same,inhibition at 0.3 µM,human SGLT2; [5],87.8%
same,IC50,human SGLT2; [6],0.0102 µM
"CCc1cc(O)c([C@@H]2O[C@H](CO)[C@@](C)(F)[C@H](O)[C@H]2O)cc1Cc1ccc(OC)cc1 [Compound 16, (2S,3R,4R,5S,6R)-2-[4-ethyl-2-hydroxy-5-[(4-methoxyphenyl)methyl]phenyl]-5-fluoro-6-(hydroxymethyl)-5-methyl-tetrahydropyran-3,4-diol]",inhibition at 0.3 µM,human SGLT1; [3],53%
same,IC50,human SGLT1; [4],0.151 µM
same,inhibition at 0.3 µM,human SGLT2; [5],85.5%
same,IC50,human SGLT2; [6],0.002 µM
C[C@]1(F)[C@H](O)[C@@H](O)[C@H](c2cc3c(c(Cc4ccc5c(c4)OCCO5)c2)OCC3)O[C@@H]1CO [Compound 19],SGLT1 % Inh @ 0.3 μM,human SGLT1; [3],9.3%
same,SGLT2 % Inh @ 0.3 μM,human SGLT2; [5],73.5%
COc1cc(C)c(Cc2ccc(OCF)cc2)cc1[C@@H]1O[C@H](CO)[C@@](C)(F)[C@H](O)[C@H]1O [Compound 24],SGLT1 % Inh @ 0.3 μM,human SGLT1; [3],29.6%
same,SGLT2 % Inh @ 0.3 μM,human SGLT2; [5],77.1%
"CCc1cc(O)c([C@@H]2O[C@H](CO)C(F)(F)[C@H](O)[C@H]2O)cc1Cc1cc2ccccc2s1 [Compound 26, (2S,3R,4R,6R)-2-[5-(benzothiophen-2-ylmethyl)-4-ethyl-2-hydroxy-phenyl]-5,5-difluoro-6-(hydroxymethyl)tetrahydropyran-3,4-diol]",IC50,human SGLT1; [7],0.044 µM
same,IC50,human SGLT2; [8],0.0329 µM
"OC[C@H]1O[C@@H](c2cc(Cc3cc4ccccc4s3)c(Cl)cc2O)[C@H](O)[C@@H](O)C1(F)F [Compound 27, (2S,3R,4R,6R)-2-[5-(benzothiophen-2-ylmethyl)-4-chloro-2-hydroxy-phenyl]-5,5-difluoro-6-(hydroxymethyl)tetrahydropyran-3,4-diol]",inhibition at 0.3 µM,human SGLT1; [1],71.3%
same,IC50,human SGLT1; [7],0.093 µM
same,IC50,human SGLT2; [8],0.0042 µM
"COc1cc(O)c([C@@H]2O[C@H](CO)C(F)(F)[C@H](O)[C@H]2O)cc1Cc1cc2ccccc2s1 [Compound 31, (2S,3R,4R,6R)-2-[5-(benzothiophen-2-ylmethyl)-2-hydroxy-4-methoxy-phenyl]-5,5-difluoro-6-(hydroxymethyl)tetrahydropyran-3,4-diol]",IC50,human SGLT1; [7],0.165 µM
same,IC50,human SGLT2; [8],0.0241 µM
"COc1cc(C)c(Cc2cc3ccccc3s2)cc1[C@@H]1O[C@H](CO)C(F)(F)[C@H](O)[C@H]1O [Compound 35, (2S,3R,4R,6R)-2-[5-(benzothiophen-2-ylmethyl)-2-methoxy-4-methyl-phenyl]-5,5-difluoro-6-(hydroxymethyl)tetrahydropyran-3,4-diol]",inhibition at 0.3 µM,human SGLT1; [1],39.2%
same,inhibition at 0.3 µM,human SGLT2; [2],76.3%
"COc1cc(Cl)c(Cc2cc3ccccc3s2)cc1[C@@H]1O[C@H](CO)C(F)(F)[C@H](O)[C@H]1O [Compound 36, (2S,3R,4R,6R)-2-[5-(benzothiophen-2-ylmethyl)-4-chloro-2-methoxy-phenyl]-5,5-difluoro-6-(hydroxymethyl)tetrahydropyran-3,4-diol]",inhibition at 0.3 µM,human SGLT1; [1],56.6%
same,IC50,human SGLT1; [7],0.221 µM
same,inhibition at 0.3 µM,human SGLT2; [2],48.6%
same,IC50,human SGLT2; [8],0.0043 µM
CCc1ccc(Cc2cc([C@@H]3O[C@H](CO)C(F)(F)[C@H](O)[C@H]3O)c(OC)c3c2OCC3)cc1 [Compound 38],SGLT1 % Inh @ 0.3 μM,human SGLT1; [1],47.4%
same,SGLT2 % Inh @ 0.3 μM,human SGLT2; [2],65.9%
COCCOc1cc(C)c(Cc2cc3ccccc3s2)cc1[C@@H]1O[C@H](CO)C(F)(F)[C@H](O)[C@H]1O [Compound 39],SGLT1 % Inh @ 0.3 μM,human SGLT1; [1],31.8%
same,SGLT2 % Inh @ 0.3 μM,human SGLT2; [2],76.4%
